In paper PMC12095788 (Communications Chemistry, 2025):

Target: T1, Nurr1 LBD homodimer (Homo sapiens, UniProt P43354)
T1 construct: a plasmid construct encoding Nurr1 (aa 364-598) in a pMal vector system; sGFP-Nurr1 LBD protein and sGFP-RXRα LBD[26] were titrated against a fixed concentration of Tb-SA conjugated Nurr1 LBD protein; MBP (cleaved yes); made in house; host or cells: E.coli BL21-R3-pRARE2 (biotinylated Nurr1 LBD)
Experiment: HTRF Nurr1 homodimer formation assay
Assay type: biochemical

T1 sequence (P43354 364-598 limits assumed): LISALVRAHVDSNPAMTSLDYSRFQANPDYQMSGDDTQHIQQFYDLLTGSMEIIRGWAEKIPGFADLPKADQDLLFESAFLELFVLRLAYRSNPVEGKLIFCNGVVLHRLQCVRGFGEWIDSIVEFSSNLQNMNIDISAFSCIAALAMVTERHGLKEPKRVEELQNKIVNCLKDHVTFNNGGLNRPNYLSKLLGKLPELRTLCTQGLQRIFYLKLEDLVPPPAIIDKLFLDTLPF

## O=C(O)C1=C(C(=O)Nc2ccc(-c3ccccc3OCc3ccccc3)cc2F)CCC1 [compound 1, 2-{[2’-(Benzyloxy)-3-fluoro-[1,1’-biphenyl]-4-yl]carbamoyl}cyclopent-1-ene-1-carboxylic acid]
  effect on Nurr1 homodimerization: markedly disrupted
